Key:
[1] = molecular target: T1, PAF Binding, dog platelets (Canis lupus familiaris, UniProt A0A8I3NSH0); test: PAF Binding Assay (inhibition of 3H-PAF binding to washed dog platelets); settings: dog platelets, 3H-PAF, 10 minutes at room temperature; read-out: Inhib of PAF Binding IC50
T1 construct: Washed platelets were prepared by resuspending the platelet pellet once with PBS containing 1 mM EDTA; from tissue; host or cells: washed platelets from dog blood
T1 sequence (A0A8I3NSH0 1-343): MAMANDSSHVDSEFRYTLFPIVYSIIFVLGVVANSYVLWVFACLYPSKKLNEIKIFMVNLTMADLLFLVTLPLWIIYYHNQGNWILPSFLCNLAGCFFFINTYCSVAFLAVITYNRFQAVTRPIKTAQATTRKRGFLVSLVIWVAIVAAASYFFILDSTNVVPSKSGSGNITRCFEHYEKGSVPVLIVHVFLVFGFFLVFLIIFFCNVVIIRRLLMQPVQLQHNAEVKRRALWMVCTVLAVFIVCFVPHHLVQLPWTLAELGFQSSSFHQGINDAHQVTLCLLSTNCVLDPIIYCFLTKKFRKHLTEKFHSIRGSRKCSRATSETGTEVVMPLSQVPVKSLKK
Method in brief: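 Washed dog platelets (2×10^7 per tube, in 0.1% BSA-PBS) incubated 10 min at room temperature with 3H-PAF and test analogs. Bound ligand separated by 1 min centrifugation through silicone oil; platelet pellet radioactivity counted by liquid scintillation.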

[2] = test system: PAF-Induced Bronchoconstriction; test: PAF Induced Bronchoconstriction Assay; type: in vivo, guinea pig; settings: for inhibition in vivo at 50 mg/kg: Cavia porcellus, po, 50 mg/Kg p.o., 2-hour pretreatment, read-out: Percent Inhib. of PAF-Induced Bronchoconstriction, 50 mg/Kg p.o.; for Percent Inhib. of PAF-Induced Bronchoconstriction, mg/Kg i.v.: i.v. (dose not given), 1 minute pretreatment, PAF 1.0 μg/kg i.v.
Method in brief: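 Male Hartley guinea pigs, urethane-anesthetized (2 g/kg i.p.), ventilated, with succinylcholine 1.2 mg/kg i.v. and propranolol 0.1 mg/kg i.v. pretreatment. Compound given i.v. 1 min or by oral gavage 2 h before i.v. PAF challenge at 1.0 μg/kg. Peak tracheal pressure rise over baseline compared with control mean gives % inhibition.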

[3] = test system: PAF-Induced Platelet Count Decrease; test: PAF Induced Platelet Count Decrease; type: in vivo, guinea pig; settings: for inhibition in vivo at 3 mg/kg: Cavia porcellus, Platelet, read-out: Percent Inhib. of PAF-Induced Platelet Count Decrease, 3 mg/Kg; for inhibition in vivo at 3 mg/kg / Percent Inhib. of PAF-Induced Platelet Count Decrease, 3 mg/Kg: 3 mg/Kg (route not given)
Description: PAF Induced Platelet Count Decrease
Male Hartley guinea pigs weighing between 500 and 900 grams were fed standard guinea pig chow and tap water ad libitum. PAF was solubilized in ethanol and stored as a 2 mM stock solution at -70° C. The stock solutuion of PAF was diluted to 1 pM in Tris buffer pH 7.4 and 0.1% BSA for all experiments.
(a) Intravenous Procedure
Guinea pigs were anesthetized with urethane (1.6 g/kg, i.p.). A catheter (PE50) was introduced into the right carotid artery for withdrawing blood. A second catheter PE10) was introduced into the jugular vein for injecting drugs and for administering the PAF challenge (75 ng/kg, i.v.). A control blood sample was obtained and platelets were counted in a whole blood platelet analyzer. PAF was then given and blood samples were taken 15, 30, and 60 seconds after the challenge for platelet counts. Fifteen minutes later, selected concentrations of the test compound were solubilized in DMSO and injected intravenously into a group of 4-6 animals. Only one concentration of antagonist was used in each animal group. Fifteen minutes after drug injection, blood smaples were taken before and 15, 30, and 60 sec after the PAF challenge, and analyzed for platelet number.
Animals were anesthetized with sodium pentobarbital (35 mg/kg. i.p.) and the caritoid artery and jugular vein were cannulated as described above. The cannulae were exteriorized at the base of the neck and the animals were allowed to recover. At least 18 hours after surgery, conscious unrestrained guinea pigs were used in the experiment. The animals were challenged two time with PAF (120 ng/kg. i.v.); the first to establish a consistent response to PAF and the second to serve as a control for the PAF challenge. Blood samples were taken before and 15, 30, and 45 seconds after PAF challenge and platelets were counted. Thirty minutes after the control PAF challenge, the animal were orally dosed with either gum acacia or the test compound. Animals were then challenged with PAF at 1, 3, 5, and 24 hours after the administration of the drug.
Data Analysis and Statistics
The % change, i.e., the difference in platelet number before and after PAF challenge was calculated by: [formula]
Statistical significance (p<0.05) of the difference between the mean PAF control and mean drug treated activity was determined with paried Students's t-test.

SMILES | IC50 [1] | inhibition in vivo at 50 mg/kg [2] | inhibition in vivo at 3 mg/kg [3] | Percent Inhib. of PAF-Induced Bronchoconstriction, mg/Kg i.v. [2] | Percent Inhib. of PAF-Induced Platelet Count Decrease, 3 mg/Kg [3] | Percent Inhib. of PAF-Induced Platelet Count Decrease, 3 mg/Kg (1 min) ([3]; 3 mg/Kg, (1 min)) | Percent Inhib. of PAF-Induced Platelet Count Decrease, 30 mg/Kg p.o. [3]
COc1cccc(/C(=C/C=C/C(=O)NCCCCc2cccnc2)c2ccccc2)c1 [(2E,4E)-5-(3-Methoxyphenyl)-5-phenyl-N-[4-(3-pyridinyl)butyl]-2,4-pentadienamide] | 20 nM | 13 ± 18% | 40% | – | – | – | –
COc1cccc(/C(=C\C=C\C(=O)NCCCCc2cccnc2)c2cccc(F)c2)c1 [(2E,4E)-5-(3-fluorophenyl)-5-(3-methoxyphenyl)-N-[4-(3-pyridinyl)butyl]-2,4-pentadienamide] | 25 nM | 25 ± 14% | – | 88 ± 4% | inactive | – | –
COc1cccc(/C(=C/C=C/C(=O)NCCCCc2cccnc2)c2cccc(F)c2)c1 [(2E,4Z)-5-(3-fluorophenyl)-5-(3-methoxyphenyl)-N-[4-(3-pyridinyl)butyl]-2,4-pentadienamide] | 40 nM | 1 ± 8% | – | 90 ± 5% | – | 67% | –
COc1cccc(/C(=C\C=C\C(=O)NCCCCc2cccnc2)c2ccccc2)c1 [(2E,4Z)-5-(3-methoxyphenyl)-5-phenyl-N-[4-(3-pyridinyl)butyl]-2,4-pentadienamide] | 35 nM | 10 ± 10% | – | – | inactive | – | –
O=C(/C=C/C=C(c1ccccc1)c1ccccc1)NCCCCc1cccnc1 [(E)-5,5-Diphenyl-N-[4-(3-pyridinyl)butyl]-2,4-pentadienamide] | 55 nM | 12 ± 1% | 14% | 35 ± 15% | – | – | –
COc1cccc(C(=C/C=C/C(=O)NCCCCc2cccnc2)c2cccc(OC)c2)c1 [(E)-5,5-bis (3-methoxyphenyl)-N-[4-(3-pyridinyl)butyl]-2,4-pentadienamide] | 2 nM | 31 ± 11% | 75% | 69 ± 7% | – | – | 48%
O=C(/C=C/C=C(c1cccc(F)c1)c1cccc(F)c1)NCCCCc1cccnc1 [(E)-5,5-bis(3-Fluorophenyl)-N-[4-(3-pyridinyl)butyl]-2,4-pentadienamide] | 20 nM | 37 ± 11% | 61% | 72 ± 16% | – | – | 58%
O=C(/C=C/C=C(c1cccc(Cl)c1)c1cccc(Cl)c1)NCCCCc1cccnc1 [(E)-5,5-bis(3-chlorophenyl)-N-[4-(3-pyridinyl)butyl]-2,4-pentadienamide] | – | 35 ± 7% | 21% | 76 ± 14% | – | – | –
COc1ccc(C(=C/C=C/C(=O)NCCCCc2cccnc2)c2ccc(OC)cc2)cc1 [(E)-5,5-bis(4-Methoxyphenyl)-N-[4-(3-pyridinyl)butyl]-2,4-pentadienamide] | 25 nM | 82 ± 12% | 40% | 92 ± 3% | – | – | 45%
O=C(/C=C/C=C(c1ccc(Cl)cc1)c1ccc(Cl)cc1)NCCCCc1cccnc1 [(E)-5,5-bis(4-chlorophenyl)-N-[4-(3-pyridinyl)butyl]-2,4-pentadienamide] | 60 nM | 63 ± 10% | 0% | 95 ± 2% | – | – | –
O=C(/C=C/C=C(c1ccc(F)cc1)c1ccc(F)cc1)NCCCCc1cccnc1 [(E)-5,5-bis(4-fluorophenyl)-N-[4-(3-pyridinyl)butyl]-2,4-pentadienamide] | 40 nM | 97 ± 1% | 18% | 91 ± 3% | – | – | –
O=C(/C=C/C=C(c1ccccc1C(F)(F)F)c1ccccc1C(F)(F)F)NCCCCc1cccnc1 [(E)-5,5-bis[2-(Trifluoromethyl)phenyl]-N-[4-(3-pyridinyl)butyl]-2,4-pentadienamide] | 80 nM | – | 0% | 6 ± 10% | – | – | –
O=C(/C=C/C=C(c1cccc(C(F)(F)F)c1)c1cccc(C(F)(F)F)c1)NCCCCc1cccnc1 [(E)-5,5-bis[3-(trifluoromethyl)phenyl]-N-[4-(3-pyridinyl)butyl]-2,4-pentadienamide] | 150 nM | – | 83% | inactive | – | – | –
C[C@H](CCCc1cccnc1)NC(=O)/C=C/C=C(c1ccc(F)cc1)c1ccc(F)cc1 [[R-(E)]-5,5-bis (4-fluorophenyl)-N-[1-methyl-4-(3-pyridinyl)butyl]-2,4-pentadienamide] | – | 53 ± 11% | 11% | 70 ± 9% | – | – | –
C[C@H](CCCc1cccnc1)NC(=O)/C=C/C=C(c1cccc(F)c1)c1cccc(F)c1 [[R-(E)]-5,5-bis(3-fluorophenyl)-N-[1-methyl-4-(3-pyridinyl)butyl]-2,4-pentadienamide] | – | 91 ± 5% | 17% | 73 ± 6% | – | – | –
COc1ccc(C(=C/C=C/C(=O)N[C@H](C)CCCc2cccnc2)c2ccc(OC)cc2)cc1 [[R-(E)]-5,5-bis(4-methoxyphenyl)-N-[1-methyl-4-(3-pyridinyl)butyl]-2,4-pentadienamide] | – | 97 ± 2% | 85% | 87 ± 4% | – | – | 81%
COc1ccc(/C(=C/C=C/C(=O)N[C@H](C)CCCc2cccnc2)C2CC2)cc1 [[R-(E,E)]-5-cyclopropyl-5-(4-methoxyphenyl)-N-[1-methyl-4-(3-pyridinyl)butyl]-2,4-pentadienamide] | 50 nM | – | – | 35 ± 5% | – | – | –
C[C@@H](CCCc1cccnc1)NC(=O)/C=C/C=C(c1cccc(F)c1)c1cccc(F)c1 [[S-(E)]-5,5-bis(3-fluorophenyl)-N-[1-methyl-4-(3-pyridinyl)butyl]-2,4-pentadienamide] | – | 46 ± 8% | 19% | 34 ± 7% | – | – | –
COc1ccc(C(=C/C=C/C(=O)N[C@@H](C)CCCc2cccnc2)c2ccc(OC)cc2)cc1 [[S-(E)]-5,5-bis(4-Methoxyphenyl)-N-[1-methyl-4-(3-pyridinyl)butyl]-2,4-pentadienamide] | – | 90 ± 6% | 42% | 42 ± 13% | – | – | –
CC[C@@H](CCCc1cccnc1)NC(=O)/C=C/C=C(c1ccc(OC)cc1)c1ccc(OC)cc1 [[S-(E)]-N-[1-ethyl-4-(3-pyridinyl)butyl]-5,5-bis (4-methoxyphenyl)-2,4-pentadienamide] | 400 nM | – | – | 44 ± 8% | – | – | –
CCCCC/C(=C\C=C\C(=O)N[C@@H](C)CCCc1cccnc1)c1ccc(OC)cc1 [[S-(E,E)]-5-(4-methoxyphenyl)-N-[1-methyl-4-(3-pyridinyl)butyl]-2,4-decadienamide] | 120 nM | 25 ± 13% | – | 46 ± 16% | – | – | –

From patent US4788206A, “Pentadieneamides” (Hoffmann-La Roche Inc., priority 1987, dated 1988)
